The target of data set [1] is unphosphorylated VEGF-R2Δ50 (FLVK) (Homo sapiens, UniProt P35968, DEL940-989/E990V). The experiment in a line: VEGF-R2 coupled spectrophotometric assay, unphosphorylated VEGF-R2Δ50 (FLVK). The conditions noted are these: FLVK Ki, Table 1.
A further data set concerns the target human FGF-R1 (Homo sapiens, UniProt P11362, C488A/C584S/L457V). The data set is described as follows: FGF-R spectrophotometric assay.
Data set [2] in a line: Human liver microsome (HLM) assay. Type of data set: in vitro ADME. The conditions noted are these: human liver microsomes, 5 μM test compound. The method in brief:
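LC-MS quantified test compound remaining after 0 and 2 h incubation with human liver microsomes. Triplicate samples, clarified by 10 min centrifugation at 14000 g.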
Background: Liver microsomes are vesicles of endoplasmic reticulum, rich in cytochrome P450 enzymes.

The subject of data set [3] is human umbilical vein endothelial cells (HUVEC). The experiment in a line: HUVEC proliferation assay (VEGF-stimulated, MTT). It is filed as cell-based. The following applies: Homo sapiens, HUVEC.
Data set [4] is described as follows: Determination of inhibitor concentration in mouse plasma after intraperitoneal and oral dosing. The conditions noted are these: 25 mg/kg; for AUClast / plasma half-life (T1/2) / Cmax: vehicle PEG400:H2O pH 2.3 30:70; for concentration at 7 h: female, vehicle PEG400:H2O pH 2.3 30:70, read-out: Cmin (7 hr conc.). It is filed as in vivo. The method in brief:
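Plasma levels quantified by HPLC or LC-MS using a standard curve prepared in mouse plasma, following ethyl acetate extraction with internal standard and sodium hydroxide. Sampling at 0.5, 1, 4 h (ocular bleed) and 7 h (cardiac puncture) after oral or intraperitoneal dosing.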

A further data set concerns the target CDK2/Cyclin A (Homo sapiens, UniProt P24941). The data set is described as follows: CDK2/Cyclin A assay ([32P]ATP, Rb fragment). It is filed as biochemical.
Another data set concerns the target CDK4/Cyclin D3 complex (Homo sapiens, UniProt P11802). The experiment in a line: CDK4/Cyclin D assay ([32P]ATP, Rb fragment).
In the next data set the target is T1, human CHK1 (FL-CHK1) (Homo sapiens, UniProt O14757).
T1 construct: C-terminally His-tagged full-length human CHK1 (FL-CHK1); made in house; host or cells: baculovirus/insect cell system
T1 sequence (O14757 1-476): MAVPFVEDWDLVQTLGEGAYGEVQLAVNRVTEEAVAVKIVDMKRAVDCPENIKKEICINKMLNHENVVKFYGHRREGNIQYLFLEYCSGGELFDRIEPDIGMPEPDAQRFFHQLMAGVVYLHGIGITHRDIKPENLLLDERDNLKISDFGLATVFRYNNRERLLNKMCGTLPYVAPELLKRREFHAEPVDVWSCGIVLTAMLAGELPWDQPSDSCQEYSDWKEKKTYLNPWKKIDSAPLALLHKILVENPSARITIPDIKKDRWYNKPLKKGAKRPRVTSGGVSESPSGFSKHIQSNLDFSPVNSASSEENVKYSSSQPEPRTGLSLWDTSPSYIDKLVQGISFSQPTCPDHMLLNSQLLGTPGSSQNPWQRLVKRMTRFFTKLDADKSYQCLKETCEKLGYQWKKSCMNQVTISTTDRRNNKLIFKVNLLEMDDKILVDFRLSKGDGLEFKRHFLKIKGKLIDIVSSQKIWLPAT
The data set is described as follows: CHK1 assay (coupled spectrophotometric, Syntide-2). Type of data set: biochemical. The following applies: Table 1. The text has this:
CHK1 Construct for Assay: C-terminally His-tagged full-length human CHK1 (FL-CHK1) was expressed using the baculovirus/insect cell system. […] The protein was purified by conventional chromatographic techniques.
The production of ADP from ATP that accompanies phosphoryl transfer to the synthetic substrate peptide Syntide-2 ([…]) was coupled to oxidation of NADH using phosphoenolpyruvate (PEP) through the actions of pyruvate kinase (PK) and lactic dehydrogenase (LDH). The oxidation of NADH was monitored by following the decrease of absorbance at 340 nm (ε340=6.22 cm^−1 mM^−1) using a HP8452 spectrophotometer. […] Assays were initiated with 10 nM of FL-CHK1. Ki values were determined by measuring initial enzyme activity in the presence of varying concentrations of test compounds. The data were analyzed using Enzyme Kinetic and Kaleidagraph software.

Where two headings read alike, the source gives them in different places.

Sequence of human FGF-R1 (P11362 456-766 L457V/C488A/C584S): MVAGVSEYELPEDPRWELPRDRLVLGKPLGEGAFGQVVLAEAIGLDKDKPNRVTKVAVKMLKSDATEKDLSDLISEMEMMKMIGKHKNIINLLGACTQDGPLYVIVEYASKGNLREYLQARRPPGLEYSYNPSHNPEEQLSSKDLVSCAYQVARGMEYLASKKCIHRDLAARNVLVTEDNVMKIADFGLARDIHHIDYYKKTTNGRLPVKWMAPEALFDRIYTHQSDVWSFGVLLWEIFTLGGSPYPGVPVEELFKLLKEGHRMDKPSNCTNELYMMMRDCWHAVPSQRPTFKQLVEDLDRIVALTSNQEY
Sequence of unphosphorylated VEGF-R2Δ50 (FLVK) (P35968 with tags, fused parts or gaps DEL940-989/E990V limits assumed): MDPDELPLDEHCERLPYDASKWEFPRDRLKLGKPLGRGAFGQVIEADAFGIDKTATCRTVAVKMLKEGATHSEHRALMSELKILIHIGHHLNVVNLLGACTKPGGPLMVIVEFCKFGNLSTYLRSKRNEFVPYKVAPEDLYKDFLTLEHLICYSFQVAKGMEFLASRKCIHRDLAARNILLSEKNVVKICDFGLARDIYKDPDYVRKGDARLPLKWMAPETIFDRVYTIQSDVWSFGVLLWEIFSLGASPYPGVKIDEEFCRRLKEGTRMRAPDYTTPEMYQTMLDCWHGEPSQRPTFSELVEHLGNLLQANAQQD
Sequence of CDK4/Cyclin D3 complex (P11802 whole entry, the tested form may be a part): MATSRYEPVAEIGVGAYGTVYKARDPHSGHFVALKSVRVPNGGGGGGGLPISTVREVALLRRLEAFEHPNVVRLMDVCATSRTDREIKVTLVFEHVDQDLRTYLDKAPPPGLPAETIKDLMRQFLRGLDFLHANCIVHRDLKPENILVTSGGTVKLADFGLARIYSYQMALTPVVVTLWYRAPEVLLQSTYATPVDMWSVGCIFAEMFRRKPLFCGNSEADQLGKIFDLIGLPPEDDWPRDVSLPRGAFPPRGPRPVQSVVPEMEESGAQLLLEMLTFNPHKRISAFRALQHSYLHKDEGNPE
Sequence of CDK4/Cyclin D3 complex (P30281 whole entry partner, the tested form may be a part): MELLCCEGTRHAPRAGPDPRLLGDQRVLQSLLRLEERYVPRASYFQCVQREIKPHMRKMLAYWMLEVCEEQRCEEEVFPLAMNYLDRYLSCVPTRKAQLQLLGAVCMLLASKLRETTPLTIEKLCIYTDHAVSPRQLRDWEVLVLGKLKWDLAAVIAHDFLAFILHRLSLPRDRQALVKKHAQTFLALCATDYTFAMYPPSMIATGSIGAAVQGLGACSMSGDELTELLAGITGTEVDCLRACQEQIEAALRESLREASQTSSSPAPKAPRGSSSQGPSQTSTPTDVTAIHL

Consider `CN(c1cccc(N)c1)c1ccc2c(/C=C/c3ccccc3)n[nH]c2c1` [Example 11, N-Methyl-N-(3-styryl-1H-indazol-6-yl)-benzene-1,3-diamine], for which the Ki in data set [1] amounted to 12 nM; at human FGF-R1, 34000 nM.
In turn, `Cc1cccc(C(=O)Nc2cccc(Oc3ccc4c(/C=C/c5ccccc5)n[nH]c4c3)c2)c1` [Example 5(b), 3-Methyl-N-[3-(3-styryl-1h-indazol-6-yloxy)-phenyl]-benzamide] yielded an inhibition constant (Ki) on human FGF-R1 of 14 nM.
For the molecule `CCn1nc(C)cc1C(=O)Nc1cc(Nc2ccc3c(/C=C/c4ccccn4)n[nH]c3c2)c(F)cc1C` [Example 48(a), 6-[N-(5-((1-Ethyl-3-methyl-1H-pyrazol-5-yl)carboxanido)-2-fluoro-4-methylphenyl)amino]-3-E-[2-(pyridin-2-yl)ethenyl]-1H-indazole], the inhibition constant (Ki) is 0.37 nM in data set [1] and 14 nM on human FGF-R1. The “% remain (HLM, 2 h)” value in data set [2] amounted to 55%. Also, the concentration for half-maximal inhibition (IC50) in data set [3] (+ albumin, read-out: HUVEC + albumin IC50) was 8.8 nM.
Molecule `Cc1cc(C(=O)Nc2cccc(C(=O)c3ccc4c(/C=C/c5ccccn5)n[nH]c4c3)c2)n(C)n1` [Example 41(p), 6-[3-((1,3-Dimethyl-1H-pyrazol-5-yl)carboxamido)benzoyl]-3-E-[2-(pyridin-2-yl)ethenyl]-1H-indazole] showed a Ki in data set [1] of 0.06 nM. The “% remain (HLM, 2 h)” value in data set [2] is listed as 62%. On human FGF-R1, this molecule gave a Ki of 90 nM. For the same molecule, in data set [4] (IP), the AUClast is 4150 ng·h/mL, the “plasma half-life (T1/2)” value is 5.5 h and the concentration at 7 h was 380 ng/mL.
In data set [1], `O=C(NNc1ccccn1)c1ccccc1Sc1ccc2c(/C=C/c3ccccn3)n[nH]c2c1` [Example 35(n)] yielded a Ki of 0.83 nM. Also, the “% remain (HLM, 2 h)” value in data set [2] is reported as 47%. The Ki at human FGF-R1 turned out to be 92 nM. In data set [4] (PO), the AUClast is 4818 ng·h/mL, the Cmax was determined as 3545 ng/mL, the “plasma half-life (T1/2)” value was 1.4 h and the concentration at 7 h was found to be 55 ng/mL.
Turning to `Oc1ccc(-c2ccc3c(/C=C/c4ccccc4)n[nH]c3c2)cc1OCc1ccccc1` [Example 1(b), 3-(E-Styryl)-6-(3-benzyloxy-4-hydroxy-phenyl)-1H-indazole], the inhibition constant (Ki) in data set [1] amounted to 2.2 nM; at CDK2/Cyclin A (Table 1), 4 µM; at CDK4/Cyclin D3 complex, 1300 nM; at human CHK1 (FL-CHK1) (read-out: CHK-1 Ki) it was 1400 nM. For the same molecule, the IC50 in data set [3] (read-out: HUVEC IC50) is > 1000 nM.
Turning to `C=CCn1nc(C)cc1C(=O)Nc1cc(C(=O)c2ccc3c(/C=C/c4ccccn4)n[nH]c3c2)ccc1C` [Example 41(ff), 6-[3-((1-Allyl-3-methyl-1H-pyrazol-5-yl)carboxamido)-4-methylbenzoyl]-3-E-[2-(pyridin-2-yl)ethenyl]-1H-indazole], the “% remain (HLM, 2 h)” value in data set [2] is reported as 68%. The inhibitory constant (Ki) on human FGF-R1 stood at 12 nM. In addition, in data set [4] (PO), the AUClast worked out at 9176 ng·h/mL, the “plasma half-life (T1/2)” value is 2.0 h and the concentration at 7 h was 410 ng/mL.
Molecule `CC(=O)Nc1cc(C(=O)c2ccc3c(/C=C/c4ccccn4)n[nH]c3c2)ccc1C` [Example 41(gg), 6-(3-Acetamido-4-methylbenzoyl)-3-E-[2-(pyridin-2-yl)ethenyl]-1H-indazole] returned an inhibition constant (Ki) on human FGF-R1 of 3.5 nM. In data set [4] (PO), the AUClast was 2692 ng·h/mL, the maximum concentration (Cmax) stood at 2079 ng/mL, the “plasma half-life (T1/2)” value was 1.1 h and the concentration at 7 h came out at 29 ng/mL.
As for `COc1cc(-c2ccc3c(-c4ccc5ccccc5c4)n[nH]c3c2)ccc1O` [Example 2(a), 3-(Naphthalen-2-yl)-6-(3-methoxy-4-hydroxy-phenyl)-1H-indazole], the Ki in data set [1] came to 40 nM; on CDK2/Cyclin A (Table 1), 0.61 µM; on CDK4/Cyclin D3 complex it was 1600 nM. Further, in data set [3] (read-out: HUVEC IC50), the half-inhibitory concentration (IC50) is > 1000 nM. Also, on human CHK1 (FL-CHK1) (read-out: CHK-1 % inhibition, @20 μM), the inhibition at 20 µM was determined as 61%.
For `CCc1cc(O)ccc1-c1ccc2c(-c3nc4ccccc4[nH]3)n[nH]c2c1` [Example 24(e), 3-1H-Benzoimidazol-2-yl-6-(2-ethyl-4-hydroxyphenyl)-1H-indazole], the figures for the Ki at CDK2/Cyclin A (Table 2) and at CDK4/Cyclin D3 complex were 0.03 µM and 4.4 nM, respectively.
As to `COc1cc(-c2ccc3c(-c4cc(OC)c(OC)c(OC)c4)n[nH]c3c2)ccc1O` [Example 2(c), 3-(3,4,5-Trimethoxyphenyl)-6-(3-methoxy-4-hydroxy-phenyl)-1H-indazole], the inhibition constant Ki in data set [1] was determined as 2600 nM; on CDK2/Cyclin A (Table 1, μM), 50 µM; on CDK4/Cyclin D3 complex, 26000 nM.
As to `Oc1cccc(-c2ccc3c(-c4nc5ccccc5[nH]4)n[nH]c3c2)c1` [Example 24(o), 3-1H-Benzoimidazol-2-yl-6-(3-hydroxyphenyl)-1H-indazole], the Ki at CDK2/Cyclin A (Table 2) was 0.029 µM; on CDK4/Cyclin D3 complex, 200 nM.
In the same order, the values of `COc1cc(O)ccc1-c1ccc2c(-c3nc4cnccc4[nH]3)n[nH]c2c1` [Example 25(a), 3-(3H-Iniidazo[4,5-c]pyridin-2-yl)-6-(4-hydroxy-2-methoxyphenyl)-1H-indazole] are 0.08 µM and 21 nM.
The matching figures for `COCCc1cc(O)ccc1-c1ccc2c(-c3nc4ccccc4[nH]3)n[nH]c2c1` [Example 24(h), 3-1H-Benzoimidazol-2-yl-6-(2-(2-methoxyethyl)-4-hydroxyphenyl)-1H-indazole]: 0.054 µM and 53 nM.
For the molecule `Cc1cc(C(=O)Nc2cccc(C(=O)c3ccc4c(/C=C/c5ccccn5)n[nH]c4c3)c2)n(C(C)C)n1` [Example 41(x), 6-[3-((1-Isopropyl-3-methyl-1H-pyrazol-5-yl)carboxamido)benzoyl]-3-E-[2-(pyridin-2-yl)ethenyl]-1H-indazole], the affinity at human FGF-R1 corresponds to a Ki of 3.4 nM. Also, in data set [4] (PO), the AUClast turned out to be 24174 ng·h/mL, the Cmax was determined as 4587 ng/mL, the “plasma half-life (T1/2)” value was 4.2 h and the concentration at 7 h was 1270 ng/mL.
Regarding `CNC(=O)c1cccc2[nH]c(-c3n[nH]c4cc(-c5ccc(O)cc5OC)ccc34)nc12` [Example 25(j), 3-(4-Methylcarbamoyl-1H-benzoinidazol-2-yl)-6-(2-methoxy-4-hydroxy-phenyl)-1H-indazole], the inhibition constant (Ki) was 0.079 µM at CDK2/Cyclin A (Table 2) and 16 nM at CDK4/Cyclin D3 complex.
Regarding `Clc1ccc(/C=C/c2n[nH]c3cc(-c4ccncc4)ccc23)cc1` [Example 29(c), 6-Pyrid-4-yl-3-E-[2-(4-chlorophenyl)ethenyl]-1H-indazole], the inhibition constant (Ki) came to 2.2 µM at CDK2/Cyclin A (Table 3) and 2000 nM on CDK4/Cyclin D3 complex.
Regarding `COc1cc(O)ccc1-c1ccc2c(-c3nc4c(SCCO)cccc4[nH]3)n[nH]c2c1` [Example 25(f), 3-[4-(2-Hydroxyethylsulfanyl)-1H-benzoimidazol-2-yl]-6-(2-methoxy-4-hydroxyphenyl)-1H-indazole], the Ki stood at 0.39 µM at CDK2/Cyclin A (Table 2) and 1000 nM on CDK4/Cyclin D3 complex.

In general, Ki refers to the equilibrium dissociation constant of an inhibitor or competing ligand from its target. The IC50 is the midpoint of a concentration-inhibition curve. What is called Cmax is the maximum level reached in the sampled fluid or tissue. As a reminder, the inhibition is the drop in the measured response relative to a control, in per cent.

The values above are taken from patent US6534524B1, “Indazole compounds and pharmaceutical compositions for inhibiting protein kinases, and methods for their use” (Agouron Pharmaceuticals, Inc., priority 1999, dated 2003).
